The text below walks through data of US6569906B1, “Composition containing a precursor capable of being hydrolysed by glucocerebrosidase” (Pierre Fabre Dermo-Cosmetique, priority 1998, dated 2003).

The target of one data set is T1, glucocerebrosidase (Homo sapiens, UniProt P04062).
T1 construct: a freeze-dried cutaneous extract obtained after taking a sample by three successive strippings of 15 cm^2; from tissue; host or cells: stratum corneum (powdered, freeze-dried cutaneous extract from three successive strippings)
T1 sequence (P04062 40-536): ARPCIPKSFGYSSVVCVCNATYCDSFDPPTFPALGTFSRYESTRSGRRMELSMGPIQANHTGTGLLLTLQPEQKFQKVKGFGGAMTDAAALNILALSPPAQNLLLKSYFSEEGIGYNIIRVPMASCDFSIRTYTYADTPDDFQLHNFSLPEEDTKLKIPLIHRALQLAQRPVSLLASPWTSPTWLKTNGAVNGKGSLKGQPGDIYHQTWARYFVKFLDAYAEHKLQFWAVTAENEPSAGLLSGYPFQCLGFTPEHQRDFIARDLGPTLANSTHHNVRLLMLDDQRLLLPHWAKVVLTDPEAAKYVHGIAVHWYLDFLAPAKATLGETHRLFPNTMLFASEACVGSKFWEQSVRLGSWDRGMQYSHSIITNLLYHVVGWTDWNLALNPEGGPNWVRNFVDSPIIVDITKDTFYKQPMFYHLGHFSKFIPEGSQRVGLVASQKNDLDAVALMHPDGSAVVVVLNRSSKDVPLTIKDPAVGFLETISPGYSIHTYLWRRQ
Description: Kinetics of hydrolysis of glucosylated precursors by glucocerebrosidase of a stratum corneum extract. The class given is biochemical. To be noted: for Quantity of molecule released: phthalate buffer pH 5.6, 24 hours incubation, freeze-dried cutaneous extract, three strippings of 15 cm^2; for Release of the active agent from its glucosylated precursor: from the glucopyranoside precursor. The procedure: The precursor and the stratum corneum sample in powdered form are incorporated into a liquid medium buffered with a phthalate buffer at pH 5.6. The mixture is incubated for 24 hours and the quantity of active agent released is assayed by densitometry on a thin-layer chromatography plate.
The following table gives, for various glucosylated precursors, the quantity of molecule released following their hydrolysis by glucocerebrosidase over 24 hours by a freeze-dried cutaneous extract obtained after taking a sample by three successive strippings of 15 cm^2.

The nature of data set [1]: Antioxidant activity against the peroxidation of squalene, MDA as indicator.
Description: (§1) The concentration of MDA released is measured by complexing with thiobarbituric acid in an acidic medium. The chromogenic complex formed absorbs at 532 nm. Its quantification is monitored by fluorimetry.
The antioxidant activity of various compounds against the peroxidation of an unsaturated lipid, squalene, is measured.
The conditions of data set [2]: Nonirradiated; cream containing 0.4%.
Description: The photostability of delta-tocopheryl-glucopyranoside and that of delta-tocopherol are compared.
Samples of a cream containing 0.4% of delta-tocopheryl-glucopyranoside or of delta-tocopherol are irradiated with a 28 J/cm^2 incident light of 290 to 800 nm (5 DEM).
The nature of data set [3]: MDA released in a cream with borage oil containing vitamin E after two hour solar exposure (thiobarbituric acid complex). As to conditions: for Concentration of MDA released: two hour solar exposure.
Description: The concentration of malonaldehyde (MDA) released in a cream containing increasing quantities of an antioxidant, vitamin E (or alpha-tocopherol), which is subjected to an oxidative stress, is measured.
The cream containing vitamin E also contains borage oil which is naturally rich in linoleic acid. Oxidative stress consists in a two hour solar exposure.
as §1

In the case of `Cc1cc(=O)oc2cc(OC3O[C@H](CO)[C@@H](O)[C@H](O)[C@H]3O)ccc12` (stereo partly shown) [4-methylumbelliferyl-glucopyranoside, 4-methylumbelliferyl glucopyranoside], the “Quantity of molecule released” value on glucocerebrosidase is listed as 100 ± 7 n mol/hour. With `Cc1c(C)c2c(c(C)c1OC1O[C@H](CO)[C@@H](O)[C@H](O)[C@H]1O)CCC(C)(CCCC(C)CCCC(C)CCCC(C)C)O2` (stereo partly drawn) [α-Tocopheryl-glucopyranoside], the “Quantity of molecule released” value on glucocerebrosidase was determined as 0 n mol/hour. With `CC(C)CCCC(C)CCCC(C)CCCC1(C)CCc2cc(O)ccc2O1` (stereo not shown) [Tocol], the “Quantity of MDA released” value in data set [1] is listed as 6 ± 1.9 μg MDA. In the case of `CC(C)CCCC(C)CCCC(C)CCCC1(C)CCc2cc(OC3OC(CO)C(O)C(O)C3O)ccc2O1` (stereo not shown) [Tocol-glucopyranoside, tocol-glucopyranoside], the “Quantity of molecule released” value on glucocerebrosidase is 14.8 ± 1.2 n mol/hour. In addition, the “Quantity of MDA released” value in data set [1] came out at 142 ± 28 μg MDA.

Consider `Cc1c(O)cc2c(c1C)O[C@](C)(CCC[C@H](C)CCC[C@H](C)CCCC(C)C)CC2` [γ-tocopherol], for which the “Release of the active agent from its glucosylated precursor” value at glucocerebrosidase is given as “not released”. For the molecule `OC[C@H]1OC(Oc2ccccc2)[C@H](O)[C@@H](O)[C@@H]1O` (stereo partly shown) [Phenylglucopyranoside], on glucocerebrosidase, the “Quantity of molecule released” value came out at 0.2 ± 0.5 n mol/hour.

For `Cc1cc(O[C@@H]2O[C@H](CO)[C@@H](O)[C@H](O)[C@H]2O)cc2c1O[C@](C)(CCC[C@H](C)CCC[C@H](C)CCCC(C)C)CC2` [Delta-tocopherol-glucopyranoside], on glucocerebrosidase, the “Quantity of molecule released” value was 14.3 ± 1 n mol/hour. The “Amount of compound in the cream” value in data set [2] was 311 ± 7 Micromoles. In data set [1], the “Quantity of MDA released” value is reported as 128 ± 38 μg MDA. For `CCCCCCCCCCCCCCCC(=O)Oc1c(C)c(C)c2c(c1C)CCC(C)(CCCC(C)CCCC(C)CCCC(C)C)O2` (stereo not drawn) [Vitamin E palmitate, alpha-tocopherol palmitate], in data set [1], the “Quantity of MDA released” value is listed as 182.7 ± 39 μg MDA. As to `Cc1c(OC2O[C@H](CO)[C@@H](O)[C@H](O)[C@H]2O)cc2c(c1C)OC(C)(CCCC(C)CCCC(C)CCCC(C)C)CC2` (stereo partly shown) [γ-Tocopheryl-glucopyranoside], the “Quantity of molecule released” value on glucocerebrosidase is recorded as 0 n mol/hour. Take `Cc1c(C)c2c(c(C)c1O)CC[C@@](C)(CCC[C@H](C)CCC[C@H](C)CCCC(C)C)O2` [vitamin E, alpha-tocopherol]: the “Release of the active agent from its glucosylated precursor” value on glucocerebrosidase is “not released”. Further, the “Concentration of MDA released” value in data set [3] (0.05 % by mass vitamin E in the cream) came to 1.2 ± 0.15 μg MDA/100 mg cream; in data set [3] (0.1 % by mass vitamin E in the cream) it was 1.9 ± 0.20 μg MDA/100 mg cream; in data set [3] (0.15 % by mass vitamin E in the cream), 2.0 ± 0.20 μg MDA/100 mg cream. Further, in data set [3] (cream rich in polyunsaturated fatty acid), the Pro-inflammatory effect result is “causes a pro-inflammatory effect”.

In the case of `Cc1cc(O)cc2c1O[C@](C)(CCC[C@H](C)CCC[C@H](C)CCCC(C)C)CC2` [Delta-tocopherol, delta-tocopherol], in data set [2], the “Amount of compound in the cream” value was determined as 310 ± 14 Micromoles. Besides, in data set [1], the “Quantity of MDA released” value is reported as 7.2 ± 1.7 μg MDA.
